# Experimental data as given in PubChem BioAssay AID510.
# Target: Dehydrogenase/reductase SDR family member 6 (Homo sapiens) (UniProt Q9BUT1)
# Assay: SDR family member 6 ligand binding, Tm shift – biophysical, DSF, SYPRO orange, purified human protein (AID 510)
# Conditions: Purified DHRS6, DSF thermal shift, at 100 µM, protein 2 µM, buffer 10 mM HEPES, pH 7.5, NaCl 150 mM, stronger effect = higher value
# Sequence of Dehydrogenase/reductase SDR family member 6 (Homo sapiens) (Q9BUT1 whole entry, looked up): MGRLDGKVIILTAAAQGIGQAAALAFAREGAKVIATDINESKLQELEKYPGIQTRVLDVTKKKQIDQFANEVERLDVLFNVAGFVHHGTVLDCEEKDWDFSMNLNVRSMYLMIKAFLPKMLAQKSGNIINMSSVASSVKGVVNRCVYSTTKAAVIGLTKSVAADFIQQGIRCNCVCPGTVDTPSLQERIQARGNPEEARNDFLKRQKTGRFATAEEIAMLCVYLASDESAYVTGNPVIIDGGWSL
row,Tm shift,Compound
1,2.2 Celsius,O=c1oc2cc(O)ccc2c2oc3cc(O)ccc3c12
2,2.2 Celsius,O=C(C1CCN(S(=O)(=O)c2cccnc2)CC1)N1CCN(C(c2ccccc2)c2ccc(Cl)cc2)CC1 (stereo not given)

# Further lines, the molecule ahead of its results:
row,Compound,Tm shift
1,NC(=O)c1ccc[n+](C2OC(COP(=O)(O)OP(=O)(O)OCC3OC(n4cnc5c(N)ncnc54)C(O)C3O)C(O)C2O)c1 (stereo not given),2.4 Celsius
2,C=CC1=C(C)/C(=C/c2[nH]c(Cc3[nH]c(/C=C4\NC(=O)C(C)=C4C=C)c(C)c3CCC(=O)O)c(CCC(=O)O)c2C)NC1=O,8.1 Celsius
3,O=C1C2(Cl)C3(Cl)C4(Cl)C(Cl)(Cl)C5(Cl)C3(Cl)C1(Cl)C5(Cl)C24Cl (stereo not given),4.7 Celsius
